From ChEMBL document CHEMBL1151549, “Design and synthesis of new taxol-containing aminophosphates as protaxols” (Bioorg Med Chem Lett, 1997)
≈ marks a conversion by molar mass, not a printed value.

System: HL-60
Test: Tested in vitro for the anticancer activity against HL-60 leukemia cells
Type: functional, cell-based
Settings: Homo sapiens

Row | IC50 | Compound
1 | 4 µg/mL (≈ 4.04 µM) | CC(=O)O[C@H]1C(=O)[C@@]2(C)[C@H]([C@H](OC(=O)c3ccccc3)[C@]3(O)C[C@H](OC(=O)[C@H](OP(=O)(O)OCCCN)[C@@H](NC(=O)c4ccccc4)c4ccccc4)C(C)=C1C3(C)C)[C@]1(OC(C)=O)CO[C@@H]1C[C@@H]2O
2 | 0.3 µg/mL (≈ 0.299 µM) | CC(=O)O[C@H]1C(=O)[C@@]2(C)[C@H]([C@H](OC(=O)c3ccccc3)[C@]3(O)C[C@H](OC(=O)[C@H](OP(=O)(O)OCCCCN)[C@@H](NC(=O)c4ccccc4)c4ccccc4)C(C)=C1C3(C)C)[C@]1(OC(C)=O)CO[C@@H]1C[C@@H]2O
3 | 0.8 µg/mL (≈ 0.819 µM) | CC(=O)O[C@H]1C(=O)[C@@]2(C)[C@H]([C@H](OC(=O)c3ccccc3)[C@]3(O)C[C@H](OC(=O)[C@H](OP(=O)(O)OCCN)[C@@H](NC(=O)c4ccccc4)c4ccccc4)C(C)=C1C3(C)C)[C@]1(OC(C)=O)CO[C@@H]1C[C@@H]2O
4 | 0.001 µg/mL (≈ 0.00117 µM) | CC(=O)O[C@H]1C(=O)[C@@]2(C)[C@H]([C@H](OC(=O)c3ccccc3)[C@]3(O)C[C@H](OC(=O)[C@H](O)[C@@H](NC(=O)c4ccccc4)c4ccccc4)C(C)=C1C3(C)C)[C@]1(OC(C)=O)CO[C@@H]1C[C@@H]2O [PACLITAXEL]
